Results as given in US20250136558A1, “PYRAZINE COMPOUNDS AS IRREVERSIBLE INHIBITORS OF FLT3” (BIOMEA FUSION, INC., priority 2021, published 2025).

Tests used:
Type in all cases: cell-based
MOLM-13 = assay: Proliferation inhibition (CellTiter-Glo) in MOLM-13 cells; conditions: Homo sapiens, 96 h, MOLM-13 AML cells, heterozygous FLT3-ITD, IC50 (4 days)
From the text: (§1) The Proliferation Inhibitory Effect was Investigated in Human AML Cell Lines MOLM-13 (AddexBio: C0003003) [REF: Pubmed: 9305600] and MV-4-11 (ATCC: CRL-9591) [REF PMID: 3496132], and CML cell line […] (ATCC: CRL-3343) [REF PMID: 163658]. Molm-13 is heterozygous for FLT3-ITD mutation, while MV4-11 is homozygous for FLT3-ITD [PMID: 12529668]. […] Cells were maintained in RPMI-1640 medium (ThermoFisher catalog no. 61870036) supplemented with 10% of Heat Inactivated FBS (ThermoFisher catalog no.A31605) and 1% Pen-Strep (Thermofisher catalog no. 10378016) and cultured at 37° C. in a humidified incubator with 5% CO2. Cell lines were […], and the cells were maintained in a range 70%-80% confluency.
(§2) ATP is present in all metabolically active cells and is considered as a marker for cell viability and proliferation. Metabolic cell activity was determined using the CellTiter-Glo kit (Promega catalog no. G7572), an ATP monitoring system based on the production of luminescence by the reaction of ATP with added UltraGlo® recombinant luciferase (Kawano et al., 2016, PLOS One, 8; 11(7):e0158888), according to the supplier's experimental recommendations. The assay was based on a 96 well plate format.
(§3) Test compounds were dissolved at 10 mM in DMSO (Sigma catalog no. D8418; purity 299.9%) and stored at −20° C. Eight concentrations of test compound were assessed in duplicate in an individual test occasion in parallel in the selected cell lines. Gilteratinib and FF-10101 were used as reference compounds and tested in duplicate at eight concentrations. 100% of proliferation is represented by the untreated cells (0.2% DMSO).
(§4) On the day of the experiment (TO), cells were quantified with the cell viability analyser NucleoCounter (Chemometec NC-200) and diluted with fresh medium to obtain the cell density of about 10,000 cells per 200 μL medium. 200 μL of cell suspension were added into wells in the 96 well plate.
(§5) After 2 hours from seeding cells, compounds were added using a D300e compound dispenser (Life Sciences Tecan D300) at desired concentrations with shaking between each compound dispensed. Cell plates containing 200 μL/well suspension were incubated at 37° C. in a humidified incubator with […].
(§6) […] Contents were mixed for 5 min on an orbital shaker to induce cell lysis, and then incubated at room temperature for an additional 10 min in the dark to stabilize the luminescent signal. Luminescence was read by using a GloMax GM300 plate reader (Promega) using the luminescence for 96 well plate standard protocol.
(§7) Results were analysed by GraphPad (Prism) and IC50 values were calculated by non-linear regression using four parameter-logistic equation.

MV-4-11 = assay: Proliferation inhibition (CellTiter-Glo) in MV-4-11 cells; conditions: Homo sapiens, MV4-11, 96 h, MV-4-11 AML cells, homozygous FLT3-ITD, IC50 (4 days)
From the text: as §1, §2, §3, §4, §5, §6, §7

K-562 = assay: Proliferation inhibition (CellTiter-Glo) in K-562 cells; conditions: Homo sapiens, K562, 96 h, K-562 CML cells, no FLT3 mutations, IC50 (4 days)
From the text: as §1, §2, §3, §4, §5, §6, §7

SMILES	IC50 (MOLM-13)	IC50 (MV-4-11)	IC50 (K-562)
C[C@@H](C(=O)NCCCOc1cccc(Nc2nc(NC3CCOCC3)c(C3CC3)nc2C(N)=O)c1)N(C)C(=O)/C=C/CN(C)C [Compound 133, (S,E)-6-cyclopropyl-3-((3-(3-(2-(4-(dimethylamino)-N-methylbut-2-enamido)propanamido)propoxy)phenyl)amino)-5-((tetrahydro-2H-pyran-4-yl)amino)pyrazine-2-carboxamide]	1 to 10 nM	< 1 nM	> 500 nM
CCc1nc(C(N)=O)c(Nc2cccc(OCCCNC(=O)[C@H](C)N(C)C(=O)/C=C/CN3CC(F)C3)c2)nc1NC1CCOCC1 [Compound 139, (S,E)-6-Ethyl-3-((3-(3-(2-(4-(3-fluoroazetidin-1-yl)-N-methylbut-2-enamido)propanamido)propoxy)phenyl)amino)-5-((tetrahydro-2H-pyran-4-yl)amino)pyrazine-2-carboxamide]	1 to 10 nM	< 1 nM	> 500 nM
C=CC(=O)N(C)[C@@H](C)C(=O)NCC#Cc1cc(Nc2nc(NC3CCOCC3)c(CC)nc2C(N)=O)ccc1OC [Compound 113, 6-ethyl-3-[4-methoxy-3-[3-[[(2S)-2-[methyl(prop-2-enoyl)amino]propanoyl]amino]prop-1-ynyl]anilino]-5-(tetrahydropyran-4-ylamino)pyrazine-2-carboxamide]	1 to 10 nM	< 1 nM	> 500 nM
CCc1nc(C(N)=O)c(Nc2cccc(OC(C)CNC(=O)[C@H](C)N(C)C(=O)/C=C/CN(C)C)c2)nc1NC1CCOCC1 (stereo partly drawn) [Compound 115A, 3-[3-[2-[[(2S)-2-[[(E)-4-(dimethylamino)but-2-enoyl]-methyl-amino]propanoyl]amino]-1-methyl-ethoxy]anilino]-6-ethyl-5-(tetrahydropyran-4-ylamino)pyrazine-2-carboxamide]	1 to 10 nM	< 1 nM	> 500 nM
CCc1nc(C(N)=O)c(Nc2cccc(OCCCNC(=O)[C@H](C)N(C)C(=O)/C=C/CN(C)C)c2)nc1N1CCC1 [Compound 148, (S,E)-5-(azetidin-1-yl)-3-((3-(3-(2-(4-(dimethylamino)-N-methylbut-2-enamido)propanamido)propoxy)phenyl)amino)-6-ethylpyrazine-2-carboxamide]	1 to 10 nM	1 to 10 nM	> 500 nM
C=CC(=O)NCCN1CCc2ccc(Nc3nc(NC4CCOCC4)c(CC)nc3C(N)=O)cc2C1=O [Compound 106]	10 to 100 nM	10 to 100 nM	> 500 nM
CCc1nc(C(N)=O)c(Nc2cccc(OCCCNC(=O)[C@H](C)N(C)C/C=C/C(=O)N(C)C)c2)nc1NC1CCOCC1 [Compound 140, (S,E)-3-((3-(3-(2-((4-(dimethylamino)-4-oxobut-2-en-1-yl)(methyl)amino)propanamido)propoxy)phenyl)amino)-6-ethyl-5-((tetrahydro-2H-pyran-4-yl)amino)pyrazine-2-carboxamide]	10 to 100 nM	10 to 100 nM	> 500 nM
CCc1nc(C(N)=O)c(Nc2cccc(OCCCNC(=O)[C@H](C)N(C)C(=O)/C=C/CN(C)C)c2)nc1NC1CCC(F)(F)CC1 [Compound 123, (S,E)-5-((4,4-difluorocyclohexyl)amino)-3-((3-(3-(2-(4-(dimethylamino)-N-methylbut-2-enamido)propanamido)propoxy)phenyl)amino)-6-ethylpyrazine-2-carboxamide]	1 to 10 nM	< 1 nM	> 500 nM
CC#CC(=O)NCCCNc1cc(Nc2nc(NC3CCOCC3)c(CC)nc2C(N)=O)ccn1 [Compound 26, 3-((2-((3-(But-2-ynamido)propyl)amino)pyridin-4-yl)amino)-6-ethyl-5-((tetrahydro-2H-pyran-4-yl)amino)pyrazine-2-carboxamide]	100 to 500 nM	10 to 100 nM	> 500 nM
CCc1nc(C(N)=O)c(Nc2cc(CCNC(=O)[C@H](C)N(C)C(=O)C#CCN(C)C)cc(OC)c2)nc1NC1CCOCC1 [Compound 136, (S)-3-((3-(2-(2-(4-(dimethylamino)-N-methylbut-2-ynamido)propanamido)ethyl)-5-methoxyphenyl)amino)-6-ethyl-5-((tetrahydro-2H-pyran-4-yl)amino)pyrazine-2-carboxamide]	1 to 10 nM	< 1 nM	> 500 nM
CC#CC(=O)NCC#Cc1cccc(Nc2nc(NC3CCOCC3)c(CC)nc2C(N)=O)c1 [Compound 14, 3-((3-(3-(But-2-ynamido)prop-1-yn-1-yl)phenyl)amino)-6-ethyl-5-((tetrahydro-2H-pyran-4-yl)amino)pyrazine-2-carboxamide]	10 to 100 nM	10 to 100 nM	> 500 nM
CC#CC(=O)N(C)[C@@H](C)C(=O)NCCCOc1cccc(Nc2nc(NC3CCOCC3)c(CC)nc2C(N)=O)c1 [Compound 114, 3-[3-[3-[[(2S)-2-[but-2-ynoyl(methyl)amino]propanoyl]amino]propoxy]anilino]-6-ethyl-5-(tetrahydropyran-4-ylamino)pyrazine-2-carboxamide]	10 to 100 nM	1 to 10 nM	> 500 nM
CC#CC(=O)N(C)[C@@H](C)C(=O)NCCc1cc(Nc2nc(NC3CCOCC3)c(CC)nc2C(N)=O)cc(OC)c1 [Compound 111, 3-[3-[2-[[(2S)-2-[but-2-ynoyl(methyl)amino]propanoyl]amino]ethyl]-5-methoxy-anilino]-6-ethyl-5-(tetrahydropyran-4-ylamino)pyrazine-2-carboxamide]	10 to 100 nM	1 to 10 nM	> 500 nM
C#CC(=O)NCCCNc1cc(Nc2nc(NC3CCOCC3)c(CC)nc2C(N)=O)ccn1 [Compound 25, 6-Ethyl-3-((2-((3-propiolamidopropyl)amino)pyridin-4-yl)amino)-5-((tetrahydro-2H-pyran-4-yl)amino)pyrazine-2-carboxamide]	10 to 100 nM	1 to 10 nM	100 to 500 nM
C=CC(=O)N1CC(CC(=O)Nc2cccc(Nc3nc(NC4CCOCC4)c(CC)nc3C(N)=O)c2)C1 [Compound 105, 6-ethyl-3-[3-[[2-(1-prop-2-enoylazetidin-3-yl)acetyl]amino]anilino]-5-(tetrahydropyran-4-ylamino)pyrazine-2-carboxamide]	10 to 100 nM	1 to 10 nM	> 500 nM
C#CC(=O)N(C)CCCC(=O)NCCc1cc(Nc2nc(NC3CCOCC3)c(CC)nc2C(N)=O)cc(OC)c1 [Compound 32, 6-ethyl-3-[3-methoxy-5-[2-[4-[methyl(prop-2-ynoyl)amino]butanoylamino]ethyl]anilino]-5-(tetrahydropyran-4-ylamino)pyrazine-2-carboxamide]	1 to 10 nM	< 1 nM	> 500 nM
CC#CC(=O)NCCC#Cc1cccc(Nc2nc(NC3CCOCC3)c(CC)nc2C(N)=O)c1 [Compound 16, 3-((3-(4-(But-2-ynamido)but-1-yn-1-yl)phenyl)amino)-6-ethyl-5-((tetrahydro-2H-pyran-4-yl)amino)pyrazine-2-carboxamide]	100 to 500 nM	100 to 500 nM	> 500 nM
CC#CC(=O)N(C)CCCC(=O)NCCc1cc(Nc2nc(NC3CCOCC3)c(CC)nc2C(N)=O)cc(OC)c1 [Compound 33, 3-[3-[2-[4-[but-2-ynoyl(methyl)amino]butanoylamino]ethyl]-5-methoxy-anilino]-6-ethyl-5-(tetrahydropyran-4-ylamino)pyrazine-2-carboxamide]	10 to 100 nM	10 to 100 nM	> 500 nM
C=CC(=O)N1CCC(C(=O)Nc2cccc(Nc3nc(NC4CCOCC4)c(CC)nc3C(N)=O)c2)CC1 [Compound 102, 6-ethyl-3-[3-[(1-prop-2-enoylpiperidine-4-carbonyl)amino]anilino]-5-(tetrahydropyran-4-ylamino)pyrazine-2-carboxamide]	10 to 100 nM	10 to 100 nM	> 500 nM
